The text below walks through data of ChEMBL document CHEMBL4376803, “Recent Advances in the Exploration of Therapeutic Analogues of Gramicidin S, an Old but Still Potent Antimicrobial Peptide” (J Med Chem, 2019).

In brackets after ≈: the same amount, converted by molar mass.

In data set [1] the test system is Escherichia coli. Nature of the data set: Antibacterial activity against Escherichia coli K-12 strain W3110 incubated for 20 hrs by liquid microdilution method. It is filed as functional. The conditions noted are these: K-12 substr. W3110, 20 h.
For data set [2], the system named is Staphylococcus aureus. Briefly: Antibacterial activity against Staphylococcus aureus 209P incubated for 20 hrs by liquid microdilution method. In kind it is functional.
The subject of data set [3] is Escherichia coli. Nature of the data set: Antibacterial activity against Escherichia coli ATCC 25922 after 24 hrs by broth dilution method. It is filed as functional. Conditions: ATCC 25922, 24 h.
The test system of data set [4] is Pseudomonas aeruginosa. Nature of the data set: Antibacterial activity against Pseudomonas aeruginosa ATCC 19582 after 24 hrs by broth dilution method. In kind it is functional. Conditions: ATCC 19582, 24 h.
Data set [5] concerns Enterococcus faecalis. Nature of the data set: Antibacterial activity against Enterococcus faecalis 1131 after 24 hrs by broth dilution method. It is filed as functional. Conditions: Enterococcus faecalis, 1131, 24 h.
Data set [6] relates to Staphylococcus aureus. Briefly: Antibacterial activity against Staphylococcus aureus 7323. In kind it is functional.
Data set [7] is described as follows: Hemolytic activity against RBC (unknown origin) at 100 ul after 4 hrs. In kind it is ADME, cell-based, Erythrocyte. The conditions noted are these: red blood cells (unknown origin).
Data set [8] has as its system Escherichia coli. Nature of the data set: Antibacterial activity against Escherichia coli NBRC 12734 after overnight incubation by microplate dilution method. In kind it is functional.
The test system of data set [9] is Pseudomonas aeruginosa. Briefly: Antibacterial activity against Pseudomonas aeruginosa NBRC 3080 after overnight incubation by microplate dilution method. In kind it is functional.
In a further data set the test system is Bacillus subtilis. Nature of the data set: Antibacterial activity against Bacillus subtilis NBRC 3513 after overnight incubation by microplate dilution method. In kind it is functional.
In data set [10] the test system is Staphylococcus aureus. Nature of the data set: Antibacterial activity against Staphylococcus aureus NBRC 12732 after overnight incubation by microplate dilution method. In kind it is functional.
The subject of the next data set is Priestia megaterium. Nature of the data set: Antibacterial activity against Bacillus megaterium ATCC 19213 after overnight incubation by microplate dilution method. It is filed as functional.
Data set [11] is described as follows: Hemolytic activity in sheep RBC incubated for 30 mins. The conditions noted are these: sheep red blood cells. In kind it is ADME, cell-based, Ovis aries, Erythrocyte.
Data set [12] relates to Escherichia coli. Nature of the data set: Antibacterial activity against Escherichia coli ATCC 25922 after overnight incubation. It is filed as functional.
In data set [13] the test system is Enterococcus faecalis. Briefly: Antibacterial activity against Enterococcus faecalis ATCC 29212 after overnight incubation. In kind it is functional.
Data set [14] relates to Staphylococcus aureus. Nature of the data set: Antibacterial activity against Staphylococcus aureus ATCC 29213 after overnight incubation. It is filed as functional.
Data set [15] can be described thus: Haemolytic activity in human erythrocytes incubated for 30 mins. It is filed as ADME, cell-based, Erythrocyte.
Data set [16] concerns Pseudomonas aeruginosa. Briefly: Antibacterial activity against Pseudomonas aeruginosa ATCC 27853 incubated for 24 hrs. It is filed as functional. The conditions noted are these: ATCC 27853, 24 h.
For data set [17], the system named is Escherichia coli. Briefly: Antibacterial activity against Escherichia coli ATCC 25922 after 24 hrs. The conditions noted are these: ATCC 25922, 24 h. In kind it is functional.
For data set [18], the system named is Enterococcus faecalis. Nature of the data set: Antibacterial activity against Enterococcus faecalis ATCC 29212 after 24 hrs. The conditions noted are these: ATCC 29212, 24 h. In kind it is functional.
For data set [19], the system named is Staphylococcus aureus. Briefly: Antibacterial activity against Staphylococcus aureus ATCC 29213 after 24 hrs. In kind it is functional. The conditions noted are these: ATCC 29213, 24 h.

As to `CC(C)C[C@@H]1NC(=O)[C@H](CCCN)NC(=O)[C@H](C(C)C)NC(=O)[C@@H]2C[C@@H](N[C@@H](Cc3ccccc3)C(=O)O)CN2C(=O)[C@@H](Cc2ccccc2)NC(=O)[C@H](CC(C)C)NC(=O)[C@H](CCCN)NC(=O)[C@H](C(C)C)NC(=O)[C@@H]2C[C@@H](N[C@@H](Cc3ccccc3)C(=O)O)CN2C(=O)[C@@H](Cc2ccccc2)NC1=O` [listing 1 of 2 here], the minimum inhibitory concentration (MIC) amounted to 16 µg/mL (≈ 10.9 µM) against Escherichia coli [1] and 8 µg/mL (≈ 5.45 µM) against Staphylococcus aureus [2].
As for `CC(C)C[C@@H]1NC(=O)[C@H](CCCN)NC(=O)[C@H](C(C)C)NC(=O)[C@@H]2CCCN2C(=O)[C@@H](Cc2c[nH]nn2)NC(=O)[C@H](CC(C)C)NC(=O)[C@@H](CCCN)NC(=O)[C@H](C(C)C)NC(=O)[C@@H]2CCCN2C(=O)[C@@H](Cc2ccccc2)NC1=O`, the MIC against Escherichia coli [3] was 32 µg/mL (≈ 28.3 µM); against Pseudomonas aeruginosa [4] it was more than 64 µg/mL; in the data set on Enterococcus faecalis [5], 64 µg/mL (≈ 56.5 µM); in the data set on Staphylococcus aureus [6], 16 µg/mL (≈ 14.1 µM). Further, the HC50 at 4 h in data set [7] lay within 45 to 55 µg/mL.
With `CC(C)C[C@@H]1NC(=O)[C@H](CCCN)NC(=O)[C@H](C(C)C)NC(=O)[C@@H]2CCCN2C(=O)[C@@H](Cc2ccccc2)NC(=O)[C@H](CC(C)C)NC(=O)[C@H](CCCN)NC(=O)[C@H](C(C)C)NC(=O)[C@@H]2CCCN2C(=O)NC(=O)[C@H](Cc2ccccc2)NC(=O)[C@H](CCCN)NC1=O`, the MIC amounted to 25 µg/mL (≈ 19.3 µM) with Escherichia coli [8]; 100 µg/mL (≈ 77 µM) against Pseudomonas aeruginosa [9]; 6.25 µg/mL (≈ 4.81 µM) against Bacillus subtilis; 3.13 µg/mL (≈ 2.41 µM) in the data set with Staphylococcus aureus [10]; 3.13 µg/mL (≈ 2.41 µM) against Priestia megaterium. Further, the HC50 at 0.5 h in data set [11] was 90 to 100 µg/mL.
On to `CC(C)C[C@@H]1NC(=O)[C@H](CCCN)NC(=O)[C@H](C(C)C)NC(=O)[C@@H]2CCCN2C(=O)[C@@H](Cc2ccc(OCc3ccccc3)cc2)NC(=O)[C@H](CC(C)C)NC(=O)[C@@H](CCCN)NC(=O)[C@H](C(C)C)NC(=O)[C@@H]2CCCN2C(=O)[C@@H](Cc2ccc(OCc3ccccc3)cc2)NC1=O`, for which the results for the MIC against Escherichia coli [12], in the data set with Enterococcus faecalis [13] and in the data set with Staphylococcus aureus [14] were 64 µg/mL (≈ 47.3 µM), 8 µg/mL (≈ 5.91 µM) and 8 µg/mL (≈ 5.91 µM), respectively.
On to `CC(C)C[C@@H]1NC(=O)[C@H](CCCN)NC(=O)[C@H](C(C)C)NC(=O)[C@@H]2C[C@@H](N[C@@H](Cc3ccccc3)C(=O)O)CN2C(=O)[C@@H](Cc2ccccc2)NC(=O)[C@H](CC(C)C)NC(=O)[C@H](CCCN)NC(=O)[C@H](C(C)C)NC(=O)[C@@H]2C[C@@H](N[C@@H](Cc3ccccc3)C(=O)O)CN2C(=O)[C@@H](Cc2ccccc2)NC1=O` [listing 2 of 2 here], for which the HC50 at 0.5 h in data set [15] lay in the range of 20 to 50 µg/mL.
Regarding `NCCC[C@@H]1NC(=O)[C@H](C23CC4CC(CC(C4)C2)C3)NC(=O)[C@@H]2CCCN2C(=O)[C@@H](Cc2ccccc2)NC(=O)[C@H](C23CC4CC(CC(C4)C2)C3)NC(=O)[C@H](CCCN)NC(=O)[C@H](C23CC4CC(CC(C4)C2)C3)NC(=O)[C@@H]2CCCN2C(=O)[C@@H](Cc2ccccc2)NC(=O)[C@H](C23CC4CC(CC(C4)C2)C3)NC1=O`, the MIC in the data set on Pseudomonas aeruginosa [16], with Escherichia coli [17], with Enterococcus faecalis [18] and against Staphylococcus aureus [19] was more than 64 µg/mL each time.
Take `CC(C)C[C@@H]1NC(=O)[C@H](CCCN)NC(=O)[C@H](C(C)C)NC(=O)[C@@H]2CCCN2C(=O)[C@@H](Cc2ccccc2)NC(=O)[C@H](CC(C)C)NC(=O)[C@H](CCCN)NC(=O)[C@H](C(C)C)NC(=O)[C@@H]2CCCN2C(=O)NC(=O)[C@H](Cc2ccccc2)NC(=O)[C@H](CCCCN)NC1=O`: the MIC in the data set with Escherichia coli [8] was 25 µg/mL (≈ 19 µM); in the data set on Pseudomonas aeruginosa [9], 100 µg/mL (≈ 76.2 µM); in the data set on Bacillus subtilis it was 3.13 µg/mL (≈ 2.38 µM); in the data set on Staphylococcus aureus [10], 3.13 µg/mL (≈ 2.38 µM); with Priestia megaterium it was 3.13 µg/mL (≈ 2.38 µM). Further, in data set [11], the HC50 at 0.5 h was more than 100 µg/mL.
Turning to `CC(C)C[C@@H]1NC(=O)[C@H](CCCN)NC(=O)[C@H](C(C)C)NC(=O)[C@@H]2CCCN2C(=O)[C@@H](Cc2ccc(O)cc2)NC(=O)[C@H](CC(C)C)NC(=O)[C@@H](CCCN)NC(=O)[C@H](C(C)C)NC(=O)[C@@H]2CCCN2C(=O)[C@@H](Cc2ccc(O)cc2)NC1=O`, the MIC was 64 µg/mL (≈ 54.5 µM) in the data set on Escherichia coli [12], 32 µg/mL (≈ 27.3 µM) against Enterococcus faecalis [13] and 32 µg/mL (≈ 27.3 µM) in the data set with Staphylococcus aureus [14].
For `CC(C)C[C@@H]1NC(=O)[C@H](CCCN)NC(=O)[C@H](C(C)C)NC(=O)[C@@H]2C[C@@H](N[C@@H](CCCCN)C(=O)O)CN2C(=O)[C@@H](Cc2ccccc2)NC(=O)[C@H](CC(C)C)NC(=O)[C@H](CCCN)NC(=O)[C@H](C(C)C)NC(=O)[C@@H]2C[C@@H](N[C@@H](CCCCN)C(=O)O)CN2C(=O)[C@@H](Cc2ccccc2)NC1=O`, in data set [15], the HC50 at 0.5 h is more than 100 µg/mL.
